Measurements published in patent EP4782437A1, “HETEROARYL COMPOUND, AND PREPARATION METHOD THEREFOR AND USE THEREOF IN MEDICINE” (Jiangsu Hengrui Pharmaceuticals Co., Ltd., priority 2023, dated 2025).

Key:
hERG potassium channels [1] = target: T1, hERG potassium channels (Homo sapiens, UniProt Q12809); experiment: hERG channel inhibition, automated patch-clamp in HEK293-hERG stable transfected cell line; details: read-out: IC50 values of blocking effects on hERG potassium currents, whole-cell patch-clamp, tail currents
T1 sequence (Q12809 whole entry): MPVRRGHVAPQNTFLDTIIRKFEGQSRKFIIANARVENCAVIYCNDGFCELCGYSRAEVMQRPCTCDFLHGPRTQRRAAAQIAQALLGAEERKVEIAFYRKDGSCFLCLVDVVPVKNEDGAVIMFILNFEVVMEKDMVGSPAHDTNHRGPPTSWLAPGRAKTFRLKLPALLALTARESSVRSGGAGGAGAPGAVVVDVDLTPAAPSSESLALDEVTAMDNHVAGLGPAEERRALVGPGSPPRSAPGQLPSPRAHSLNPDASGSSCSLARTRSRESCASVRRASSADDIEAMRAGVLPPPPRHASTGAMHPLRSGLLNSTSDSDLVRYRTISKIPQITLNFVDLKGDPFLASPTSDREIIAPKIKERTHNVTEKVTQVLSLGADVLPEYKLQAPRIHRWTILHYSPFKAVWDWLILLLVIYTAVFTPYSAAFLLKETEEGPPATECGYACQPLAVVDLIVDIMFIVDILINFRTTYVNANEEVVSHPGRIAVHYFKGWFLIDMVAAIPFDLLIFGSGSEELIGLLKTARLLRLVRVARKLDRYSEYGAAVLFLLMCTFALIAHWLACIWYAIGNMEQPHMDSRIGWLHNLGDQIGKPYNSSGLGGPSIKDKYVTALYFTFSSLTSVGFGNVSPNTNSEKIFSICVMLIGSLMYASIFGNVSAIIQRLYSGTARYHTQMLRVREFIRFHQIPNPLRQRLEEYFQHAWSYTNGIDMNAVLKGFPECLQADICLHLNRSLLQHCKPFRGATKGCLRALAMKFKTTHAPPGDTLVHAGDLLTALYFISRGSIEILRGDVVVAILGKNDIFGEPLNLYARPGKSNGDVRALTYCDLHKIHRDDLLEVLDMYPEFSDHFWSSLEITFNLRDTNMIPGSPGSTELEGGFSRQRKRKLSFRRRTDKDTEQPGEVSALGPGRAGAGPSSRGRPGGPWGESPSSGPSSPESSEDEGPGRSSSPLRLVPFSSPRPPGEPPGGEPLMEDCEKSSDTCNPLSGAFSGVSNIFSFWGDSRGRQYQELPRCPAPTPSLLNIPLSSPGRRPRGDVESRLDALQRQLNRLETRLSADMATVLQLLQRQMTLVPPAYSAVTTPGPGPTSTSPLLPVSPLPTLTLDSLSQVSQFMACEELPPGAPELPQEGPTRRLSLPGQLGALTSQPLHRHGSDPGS

hERG potassium channels [2] = target: T1, hERG potassium channels; experiment: cell-based
[3] = target: T2, BTK recombinant human protein (Homo sapiens, UniProt Q06187); experiment: Inhibitory activity against BTK (HTRF KinEASE-TK kit); format: biochemical; details: 2 nM BTK, 10 µM ATP, 0.5 hours preincubation at 25°C; read-out: IC50 values of inhibitory activity against BTK
T2 construct: purchased Thermo PV3363
T2 sequence (Q06187 whole entry): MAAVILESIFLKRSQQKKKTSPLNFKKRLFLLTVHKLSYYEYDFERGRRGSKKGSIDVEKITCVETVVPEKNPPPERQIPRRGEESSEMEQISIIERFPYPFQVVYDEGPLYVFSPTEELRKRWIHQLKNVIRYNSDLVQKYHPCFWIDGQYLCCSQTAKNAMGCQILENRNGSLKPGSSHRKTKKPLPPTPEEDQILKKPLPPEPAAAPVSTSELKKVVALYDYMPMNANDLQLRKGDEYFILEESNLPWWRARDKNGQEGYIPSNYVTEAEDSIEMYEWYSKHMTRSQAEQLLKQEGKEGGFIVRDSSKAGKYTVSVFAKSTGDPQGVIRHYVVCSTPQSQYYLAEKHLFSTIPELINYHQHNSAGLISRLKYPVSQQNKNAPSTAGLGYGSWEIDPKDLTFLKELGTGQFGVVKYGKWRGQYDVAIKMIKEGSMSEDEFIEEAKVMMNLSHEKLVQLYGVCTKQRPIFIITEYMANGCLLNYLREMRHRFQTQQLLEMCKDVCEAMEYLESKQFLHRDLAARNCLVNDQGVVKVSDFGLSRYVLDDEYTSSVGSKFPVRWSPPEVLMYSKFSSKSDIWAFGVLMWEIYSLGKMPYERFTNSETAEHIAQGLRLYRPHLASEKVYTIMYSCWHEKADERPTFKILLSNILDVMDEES
Description: Test example 1: Inhibitory activity of compounds of the present disclosure against BTK • I. Experimental materials and instruments • 1. BTK recombinant human protein (Thermo, PV3363) • 2. HTRF KinEASE-TK kit (Cisbio, 62TK0PEC) • 3. 1 M MgCl2 (Thermo, AM9530G) • 4. 1 M MnCl2 (Sigma, M1787-100ML) • 5. Adenosine 5'-triphosphate (ATP) (New England Biolabs, P0756L) • 6. DTT 2M (Sangon Biotech, B645939) • 7. Ultrapure water (Invitrogen, 10977-015) • 8. OptiPlate-384, white opaque 384-well microplate (PerkinElmer, 6007290) • 9. 96-well round-bottom plate (Corning, 3788) • 10. Biochemical incubator (Shanghai Boxun Medical & Biological Instruments Co., Ltd., BSP-100) • 11. 15-mL centrifuge tube (Corning) • 12. Benchtop high-speed centrifuge (Changsha Yingtai Instrument Co., Ltd., TD4N) • 13. Multifunctional microplate reader (PerkinElmer, EnVision) • 14. Bravo liquid handling platform (Agilent Technologies, SGC120TH34702) • II. Experimental procedure
The HTRF KinEASE-TK kit is designed to detect changes in BTK enzyme activity based on two technologies, i.e., fluorescence resonance energy transfer and time-resolved fluorescence. The kit is operated in two stages: 1) enzyme reaction stage: the enzyme reaction is initiated by adding ATP, where the enzyme phosphorylates the substrate, and the compounds are then added to competitively bind to BTK against ATP, thereby inhibiting substrate phosphorylation; and 2) detection stage: after the enzyme reaction is complete, a detection reagent is added to terminate the reaction. Different groups on the phosphorylated substrate bind to the energy donor and energy acceptor, respectively, bringing the two into close proximity. During the instrumental readout, the energy donor is excited by an external light source, which enables resonance energy transfer to the proximal energy acceptor. The acceptor, in turn, becomes excited and emits light at a specific wavelength. Thus, changes in enzyme activity can be detected by measuring the signal values, and the inhibition rate of the compounds against the target enzyme can be calculated, thereby evaluating the inhibitory effect of the compounds on BTK enzyme activity.
Preparation of enzyme reaction buffer: 5× Kinase Buffer was diluted 5-fold with ultrapure water, and then the stock solutions of MgCl2, MnCl2 and DTT were added. The final composition of the buffer was as follows: 1× Kinase Buffer, 10 mM MgCl2, 1 mM MnCl2, and 1 mM DTT.
(§1) Preparation of 5 × BTK working solution: The BTK (5.17 µM) stock solution was removed from -20°C storage. Given that the BTK concentration in the enzyme reaction system was 2 nM and the concentration of the 5× working solution was 10 nM, the BTK stock solution was diluted 517-fold with the enzyme reaction buffer according to the volume required for the experiment. The diluted solution was then added to the 384-well plate at 2 µL per well. The plate was placed in a plate spinner and centrifuged at 2000 rpm for 1 minute to bring the liquid to the bottom of the wells.
as §1, with “[…]. Given” for “Preparation of 5 × BTK working solution: The BTK (5.17 µM) stock solution was removed from -20°C storage. Given”, “the SEB” for “the BTK”, “was 50” for “was 2”, “was 250” for “was 10”, “diluted 10-fold” for “diluted 517-fold”
The test compounds dissolved in 100% DMSO at 20 mM were diluted with 100% DMSO to a concentration of 200 µM, which represents the 200× concentration of the highest compound concentration point in the reaction system. The compounds at this concentration were then subjected to 10-point 3-fold serial dilution with 100% DMSO. The positive control wells and negative control wells were set with 100% DMSO. […]

[4] = test system: B cell activation in human whole blood; experiment: Inhibition of B cell activation in human whole blood (CD69 expression, flow cytometry); format: cell-based; details: anti-human IgD 30 µg/ml + IL-4 5 ng/ml, 18 hours, CD69-positive CD19-positive B cells, read-out: IC50 values of inhibitory activity against B cell activation in human whole blood
Description: Test example 2: Inhibitory activity of compounds of the present disclosure against B cell activation in human whole blood • I. Experimental materials and instruments • 1. Human whole blood (internal recruitment) • 2. Goat F(ab')2 anti-human IgD-UNLB (SouthernBiotech, 2032-01) • 3. DPBS (1x) (Gibco, 14190-144) • 4. Recombinant human IL-4 (Peprotech, 200-04) • 5. Brilliant Violet 421™ anti-human CD19 antibody (Biolegend, 302234) • 6. APC anti-human CD69 antibody (Biolegend, 310910) • 7. APC mouse IgG1, κ isotype control antibody (Biolegend, 400120) • 8. eBioscience™ 10X RBC lysis buffer (multi-species) (Thermo, 004300-54) • 9. NEST 96-well deep-well plate (Wuxi NEST Biotechnology Co., Ltd., 503501) • 10. 96-well round-bottom plate (Corning, 3788) • 11. 96-well flat-bottom plate (Corning, 3599) • 12. Attune™ NxT acoustic focusing cytometer (ThermoFisher Scientific, 4.2.0) • 13. Cell incubator (Thermo, Forma steri-cycle i160) • II. Experimental procedure
B cells express the B cell receptor (BCR) complex on their surface. When B cells in human whole blood are induced to activate, they can trigger the downstream signalling pathways of the receptor and express the activation marker CD69. The expression of CD69 in activated B cells was detected by flow cytometry, and the IC50 of the compounds were calculated to evaluate the effects of the compounds on BCR activation.
The test compounds dissolved in 100% DMSO at 20 mM were diluted with 100% DMSO to a concentration of 1 mM, which represents the 200× concentration of the highest compound concentration point in the reaction system. The compounds at this concentration were then subjected to 8-point 4-fold serial dilution with 100% DMSO. The positive control wells were set with 100% DMSO, whereas the negative control wells were set with Remiburtinib at a final concentration of 5 µM. The serially diluted compounds and 100% DMSO were further diluted 10-fold in PBS to achieve the 20× concentration, followed by thorough mixing.
After thorough mixing, the whole blood sample was transferred to a loading reservoir and then dispensed into a 96-well flat-bottom plate at 80 µl per well. The compound dilution was dispensed at 5 µl per well. The 11th column of each row was designated as the negative control well, with 5 µl of 100 µM positive control drug added to each well. After thorough mixing for 5 min, the plate was incubated in a 37°C incubator for 30 min. Human IgD antibody was diluted 1.67-fold with PBS to a concentration of 300 µg/mL, and 10 µl of the diluted solution was added to each well of the culture plate (final concentration: 30 µg/ml). Human IL-4 (stock solution at 50 µg/ml) was diluted 500-fold with PBS to a concentration of 100 ng/mL, and 5 µl of the diluted solution was added to each well of the culture plate (final concentration: 5 ng/ml). After thorough mixing for 5 min, the plate was cultured in a 37°C incubator with 5% CO2 for 18 hours.
Flow cytometry detection: CD69-APC, CD19-BV421 and CD4-APC antibodies, and the isotype control antibodies for CD69-APC were removed from 4°C storage. Each antibody was added at 1 µl per well. After thorough mixing for 5 min, the plate was incubated for 30 min at 4°C (refrigerator) in the dark for staining. The 10X RBC lysis buffer was diluted in water to prepare 1X RBC lysis buffer. Aliquots of 1 ml of the lysis buffer were dispensed into each well of a 96-well deep-well plate in advance. The stained samples were transferred into the deep-well plate containing the lysis buffer for erythrocyte lysis. After completing the transfer of an entire plate, the plate was incubated in the dark for 15-20 min. Upon completion of lysis, the plate was centrifuged at 2000 rpm for 4 min. Each well was washed with 1 ml of PBS. Subsequently, the cells were resuspended in 200 µl of PBS, transferred to a 96-well plate, and washed twice more using the same procedure. The samples were resuspended in 200 µl of PBS per well and then subjected to flow cytometry detection. […]

SMILES | IC50 [3] [µM] | IC50 [4] [µM] | IC50 (hERG potassium channels [1]) [µM] | IC50 (hERG potassium channels [2]) [µM]
C=C(C)C(=O)NCCOc1c(N)ncnc1-c1cc(F)cc(NC(=O)c2ccc3c(c2F)OC(C)(C)C3)c1C [Example 4, N-(3-(6-amino-5-(2-(N-methacrylamido)ethoxy)pyrimidin-4-yl)-5-fluoro-2-methylphenyl)-7-fluoro-2,2-dimethyl-2,3-dihydrobenzofuran-6-carboxamide] |  |  | 15.5 | 
C=CC(=O)N(C)CCOc1c(N)ncnc1-c1cc(F)cc(NC(=O)c2ccc3c(c2F)OCC3(C)C)c1C [Example 7, N-(3-(6-amino-5-(2-(N-methacrylamido)ethoxy)pyrimidin-4-yl)-5-fluoro-2-methylphenyl)-7-fluoro-3,3-dimethyl-2,3-dihydrobenzofuran-6-carboxamide] | 0.003 | 0.01 to 0.1 |  | 17
C=CC(=O)N(C)CCOc1c(N)ncnc1-c1cc(F)cc(NC(=O)c2cc3c(cc2F)C(C)(C)CO3)c1C [Example 8, N-(3-(6-amino-5-(2-(N-methacrylamido)ethoxy)pyrimidin-4-yl)-5-fluoro-2-methylphenyl)-5-fluoro-3,3-dimethyl-2,3-dihydrobenzofuran-6-carboxamide] | 0.0062 | 0.01 to 0.1 |  | 10
[2H]C([2H])([2H])N(CCOc1c(N)ncnc1-c1cc(F)cc(NC(=O)c2cc3c(cc2F)C2(CC3)CC2)c1C)C(=O)C=C [Example 19, N-(3-(6-amino-5-(2-(N-(methyl-d3)acrylamido)ethoxy)pyrimidin-4-yl)-5-fluoro-2-methylphenyl)-6'-fluoro-2',3'-dihydrospiro[cyclopropane-1,1'-indene]-5'-carboxamide] | 0.00899 | 0.01 to 0.1 |  | 
C=CC(=O)N(C)CCOc1c(N)ncnc1-c1cc(F)cc(NC(=O)c2ccc3c(c2)OCC3(C)C)c1C [Example 27, N-(3-(6-amino-5-(2-(N-methacrylamido)ethoxy)pyrimidin-4-yl)-5-fluoro-2-methylphenyl)-3,3-dimethyl-2,3-dihydrobenzofuran-6-carboxamide] | 0.00752 | 0.01 to 0.1 |  | 12

Further lines, with some results ahead:

IC50 [3] [µM] | IC50 [4] [µM] | SMILES | IC50 (hERG potassium channels [1]) [µM] | IC50 (hERG potassium channels [2]) [µM]
0.00212 | 0.01 to 0.1 | [2H]C([2H])(CN(C)C(=O)C=C)Oc1c(N)ncnc1-c1cc(F)cc(NC(=O)c2ccc3c(c2F)OCC3(C)C)c1C [Example 28, N-(3-(6-amino-5-(2-(N-methacrylamido)ethoxy-1,1-d2)pyrimidin-4-yl)-5-fluoro-2-methylphenyl)-7-fluoro-3,3-dimethyl-2,3-dihydrobenzofuran-6-carboxamide] |  | 14
0.00173 | 0.01 to 0.1 | C=CC(=O)N(CC)CCOc1c(N)ncnc1-c1cc(F)cc(NC(=O)c2ccc3c(c2F)OCC3(C)C)c1C [Example 29, N-(3-(6-amino-5-(2-(N-ethylacrylamido)ethoxy)pyrimidin-4-yl)-5-fluoro-2-methylphenyl)-7-fluoro-3,3-dimethyl-2,3-dihydrobenzofuran-6-carboxamide] |  | 16
0.00155 | 0.01 to 0.1 | C=CC(=O)N(CCF)CCOc1c(N)ncnc1-c1cc(F)cc(NC(=O)c2ccc3c(c2F)OCC3(C)C)c1C [Example 30, N-(3-(6-amino-5-(2-(N-(2-fluoroethyl)acrylamido)ethoxy)pyrimidin-4-yl)-5-fluoro-2-methylphenyl)-7-fluoro-3,3-dimethyl-2,3-dihydrobenzofuran-6-carboxamide] |  | 20
0.0007 | 0.01 to 0.1 | C=CC(=O)N1CCC[C@H]1COc1c(N)ncnc1-c1cc(F)cc(NC(=O)c2ccc3c(c2F)OCC3(C)C)c1C [Example 31, (S)-N-(3-(5-((1-acryloylpyrrolidin-2-yl)methoxy)-6-aminopyrimidin-4-yl)-5-fluoro-2-methylphenyl)-7-fluoro-3,3-dimethyl-2,3-dihydrobenzofuran-6-carboxamide] |  | 
0.00156 | 0.01 to 0.1 | C=CC(=O)N1C[C@H](F)C[C@H]1COc1c(N)ncnc1-c1cc(F)cc(NC(=O)c2ccc3c(c2F)OCC3(C)C)c1C [Example 32, N-(3-(5-(((2S,4R)-1-acryloyl-4-fluoropyrrolidin-2-yl)methoxy)-6-aminopyrimidin-4-yl)-5-fluoro-2-methylphenyl)-7-fluoro-3,3-dimethyl-2,3-dihydrobenzofuran-6-carboxamide] |  | 12
